Data taken from publication PMC7667029, “A Targeted Computational Screen of the SWEETLEAD Database Reveals FDA-Approved Compounds with Anti-Dengue Viral Activity” (mBio, 2020).
Entries after “also recorded” stand apart in the source; their conditions may differ. Where two headings read alike, the source gives them in different places.

Legend:
dengue virus [1] = test: Initial screening of hit compounds for anti-dengue activity in tissue culture cells (Table S1); assay type: cell-based; conditions: viral titer relative to vehicle, tissue culture cell lines (BHK-21 48 hpi, Fig. S1; Huh7, Fig. 2C, 3C, 4C)
Description: For each query molecule, the top 500 compound hits obtained from the ROCS algorithm, as ranked by the Tanimoto combo score (see Data Set S1 in the supplemental material), were manually inspected for similar chemical and structural features. They were further prioritized by factors such as a lack of known side effects, commercial availability, and the intellectual property considerations that would be needed for worldwide, inexpensive use. Fourteen candidates were tested for their effects on dengue virus growth and toxicity in BHK-21 and Huh7 cells (see Table S1 and Fig. S1 in the supplemental material).
Supplementary file : TABLE S1 Summary of hits for lead compounds ARDP0006 and ST-148 screened for anti-dengue activity in tissue culture cells. Hit compounds were tested for anti-dengue activity and cell toxicity in tissue culture cell lines. Antiviral activity is summarized as follows: −, not antiviral, with titer greater than 50% of vehicle; +, weakly antiviral, with titer between 20 and 50% of vehicle; ++, moderately antiviral, with titer between 5 and 20% of vehicle; +++, highly antiviral, with titer less than 5% of vehicle. Toxicity at these doses is represented as follows: −, nontoxic, with cell viability greater than 80% of vehicle; +, mild toxicity, with cell viability between 60 and 80% of vehicle; +++, high toxicity, with cell viability less than 60% of vehicle. Data summarized here are depicted graphically in Fig. S1 and Fig. 2C, 3C, and [4]C. The Tanimoto combo score of each hit during initial ROCS screening is indicated; higher Tanimoto combo scores are indicative of increased chemical similarity. Download Table S1, PDF file, 0.04 MB.
Supplementary file : FIG S1 Initial screening of eliminated hit compounds for anti-dengue activity in tissue culture cells. BHK-21 cells were pretreated with the compounds at the indicated concentrations for 30 min, infected with dengue virus at an MOI of 0.1 PFU/cell for 1 h, and then posttreated with compound. At 48 hpi, cellular supernatant was collected and titered by plaque assay (purple). Cell viability in uninfected cells in the presence of compounds for 48 h was measured by WST assay (gray). Both viral titer and cell viability are normalized to their relative DMSO vehicle control, N = 2. Download FIG S1, PDF file, 0.06 MB.

[2] = single dose, ref PubChem database, cited from earlier work
dengue virus [3] = test: Virucidal activity assay, 60-min incubation of drug with virus, plaque assay on BHK-21 cells; assay type: cell-based
Description: (§1) (A) Chemical structures and (B) ROCS overlay of ST-148 and niclosamide. […] Compound addition, viral growth, and cytotoxicity assays were performed as described in the legend to Fig. 2C. (D) Virucidal activity of compounds at the concentrations indicated was measured after 60-min incubation of drugs with virus-containing solutions at 37°C. Viral titer was quantified by plaque assay on BHK-21 cells. n = 3. Statistical significance was evaluated by one-way ANOVA with Sidak’s multiple-comparison test and indicated as follows: *, P < 0.05; **, P < 0.01; ****, P < 0.0001; ns, not significant. […] On the left, cells were pretreated for 2 h prior to infection, compounds were removed during a 1-h infection at an MOI of 0.5 PFU/cell and then readministered after removal of viral inoculum. On the right, cells were similarly infected and compounds were first introduced 4 h after starting the infection. […] (F) To test the effect of ST-148 and niclosamide on viral RNA replication, Huh7 cells were infected for 1 h at an MOI of 0.5 PFU/cell. […] Intracellular RNA was collected at the time points indicated and quantified by qRT-PCR. […] N = 4, two-way ANOVA with Dunnett’s multiple-comparison test. […] After 4 h of infection, 10 μM ST-148 or 1 μM niclosamide was added; extracellular virus was collected at 24 hpi and quantified by plaque assay.
Compounds were diluted to 100× in DMSO, then further diluted 1:100 into phosphate-buffered saline (PBS) containing dengue virus to a final volume of 200 μl and mixed. Aliquots were taken for plaque assays immediately after addition of compounds (time [T] = 0 min) or after incubation at 37°C for 60 min (T = 60 min).

dengue viral RNA = test: Intracellular viral RNA quantification by qRT-PCR in infected Huh7 cells; assay type: cell-based, dengue virus; conditions: added 4 h postinfection at IC90 dose (5.6 μM ST-148, 0.66 μM niclosamide)
Description: as §1

Zika virus = system: Zika virus; parameters: method as in PMID 27571349; conditions: read-out: IC50, previously reported value for Zika virus; cited from earlier work
DENV2 = test: Antiviral activity in DENV2-infected Huh7 cells, infectious virus in supernatant by plaque assay; assay type: cell-based, dengue virus
Description: FIG 2 Pyrimethamine inhibits dengue virus and NS2B/3 proteinase cleavage like ARDP0006. (A) Chemical structures and (B) ROCS overlay of ARDP0006 and pyrimethamine. […] Infectious virus in cell supernatant was quantified by plaque assay at 24 hpi (left y axis, black or red). Cell viability was measured at the same pyrimethamine doses 24 h posttreatment by WST-1 assay (right y axis, gray). Viral titer and cell viability were normalized to DMSO-treated samples. (D) Splenic titers of DENV2-infected AGB6 mice at 4 days postinfection. Mice were infected with 1 × 10^6 PFU DENV2 and treated twice daily with 20 mg/kg pyrimethamine (n = 9) or a vehicle control (n = 10). Data were analyzed by two-tailed unpaired t test. (E) Cleavage kinetics of NS2B/3/4A in the presence of 100 μM pyrimethamine. NS2B/3/4A protein was expressed in vitro and radiolabeled with [^35S]methionine, followed by treatment with 100 μM pyrimethamine or DMSO. Reaction samples were obtained over a 45-min time course, separated by SDS-PAGE, and the fraction of uncleaved proteinase precursor remaining was determined as described previously ([23]). Data from three replicates were fit using single-phase exponential decay functions, and P value was determined by comparing the rate constant, K, of the models using the extra sum-of-squares F test.
Dengue plaque assays were carried out on BHK-21 cells in 24-well plates. Cells were infected with 10-fold serial dilutions of virus, which were allowed to adsorb for at least 1 h at 37°C, and overlaid with standard cell culture medium plus 0.37% (w/vol) sodium bicarbonate and 0.8% (w/vol) Aquacide II (Millipore Calbiochem). After 7 days of incubation at 37°C, 5% CO2, cells were fixed with 5% (final) formaldehyde and stained with crystal violet for plaque enumeration.
Between 4 × 10^4 and 1 × 10^5 Huh7 cells per well were seeded into 24-well plates 1 day prior to infection. Compounds were diluted to 100× final concentration in DMSO and then further diluted 1:100 into appropriate cell culture. Unless otherwise indicated, tested compounds were present for 1 h pretreatment and readministered for posttreatment following infection. […] Media and drugs were removed from cells for infection at a multiplicity of infection (MOI) of 0.1 or 0.5 in 200 μl cold medium per well. After 1 h at 37°C, virus inoculum was removed by aspiration and replaced with medium plus compound or control. After 24-h total infection, infectious virus was quantified by plaque assay. Antiviral IC50 dose-response curves were fitted in GraphPad Prism 8 using the “[inhibitor] versus response, variable slope” function with a constraint “bottom > 0.” IC90 values are defined as the dose at which “y = (span × 0.1) + bottom.”

For `O=C(Nc1ccc([N+](=O)[O-])cc1Cl)c1cc(Cl)ccc1O` [Niclosamide, niclosamide], the Antiviral (dengue virus [1]) is listed as “+++ (highly antiviral, with titer less than 5% of vehicle)”, the LD50 ([2]; IP) is listed as 7.5 mg/kg and the LD50 ([2]; Oral) is listed as 1000 mg/kg. The “Virucidal effect of the combination with ST-148” value (dengue virus [3]; 1 μM niclosamide added to 0.1 μM ST-148, 1 h at 37°C) was “significantly increased the virucidal effect of ST-148; also recorded: augment the virucidal activity of ST-148”, the “Virucidal activity (viral infectivity after coincubation)” value (dengue virus [3]; niclosamide alone at a much higher concentration, 1 h at 37°C) was “significantly, albeit slightly, virucidal” and the “Viral RNA abundance” value (dengue viral RNA) was “no difference in viral RNA abundance”. For the same compound, the IC50 (Zika virus) was 280 nM, the “Virion production at increased dose after entry” value (DENV2; 10 μM ST-148 or 1 μM niclosamide added after 4 h of infection, extracellular virus at 24 hpi) was “effective during later, postentry stages; also recorded: inhibited virion production” and the IC90 (DENV2; Dengue virus, Huh-7, DENV2-infected Huh7 cells, from dose-response curve fit, 24 hpi) was 660 nM. For the same compound, the IC50 (DENV2; Dengue virus, Huh-7, DENV2-infected Huh7 cells, single infectious cycle, plaque assay at 24 hpi, read-out: IC50 of viral inhibition (infectious extracellular virus)) was 280 nM and the “Viral titer on delayed addition of compound” value (DENV2; IC90 dose first added 4 h after infection, Huh7, 24 hpi) was “eliminated the observed reduction of viral titer”.
